Read-outs that look alike come from different tables or passages of the source.
Columns and labels:
[1] = system: green peach aphid (Myzus persicae); assay: Myzus test (MYZUPE spray treatment); format: in vivo; conditions: foliar, 144 h, read-out: activity (aphids killed)
Method: After 6 days the activity is determined, in %.

[2] = system: larvae of the mustard beetle (Phaedon cochleariae); assay: Phaedon test (PHAECO spray treatment); conditions: in Brassica rapa, foliar, 168 h, read-out: activity (beetle larvae killed)
[3] = logP determination by HPLC on reversed-phase columns (C 18), EEC Directive 79/831 Annex V.A8; format: physicochemical
[4] = system: caterpillars of the army worm (Spodoptera frugiperda); assay: Spodoptera frugiperda test (SPODFR spray treatment); format: in vivo; conditions: foliar, 168 h, read-out: activity (caterpillars killed)
[5] = HPLC, reversed-phase C 18, value in text of the Preparation Examples, read-out: logP
[6] = HPLC, reversed-phase C 18, table value without method mark, read-out: logP
[7] = application rate 100 g/ha, after 7 days, maize leaf discs, spray
[8] = application rate 100 g/ha, after 6 days, Chinese cabbage leaf discs, spray

| Compound | pest or weed control at 100 g/ha ([1]; in Brassica rapa) [%] | pest or weed control at 100 g/ha [2] [%] | pest or weed control at 100 g/ha ([4]; in Zea mays) [%] | chromatographic logP [3] | chromatographic logP [3, 6] | further results |
| --- | --- | --- | --- | --- | --- | --- |
| COC(=O)N(C)NC(=O)c1cc(Cl)cc(C)c1NC(=O)c1cc(Cn2nnc(C(F)(F)C(F)(F)C(F)(F)F)n2)nn1-c1ncccc1Cl [Example 1, methyl N′-(5-chloro-2-{[2-(3-chloropyridin-2-yl)-5-(5-heptalluoropropyltetrazol-2-ylmethyl)-2H-pyrazole-3-carbonyl]amino}-3-methylbenzoyl)-N-methylhydrazinecarboxylate] | 100 | 100 | 100 | – | – | chromatographic logP [3, 5]: 3.66 |
| COC(=O)NNC(=O)c1cc(I)cc(C)c1NC(=O)c1cc(Cn2nnc(C(F)(F)C(F)(F)C(F)(F)F)n2)nn1-c1ncccc1Cl [Example 2, Methyl N′-(2-{[2-(3-chloropyridin-2-yl)-5-(5-heptalluoropropyltetrazol-2-ylmethyl)-2H-pyrazole-3-carbonyl]amino}-5-iodo-3-methylbenzoyl)hydrazincarboxylate] | – | 100 | 100 | – | – | chromatographic logP [3, 5]: 3.58 |
| COC(=O)NNC(=O)c1cc(Cl)cc(C)c1NC(=O)c1cc(Cn2nnc(C(F)(F)F)n2)nn1-c1ncccc1Cl [Example 3] | 100 | 100 | 100 | 2.73 | – | – |
| COC(=O)NNC(=O)c1cc(C#N)cc(C)c1NC(=O)c1cc(Cn2nnc(C(F)(F)F)n2)nn1-c1ncccc1Cl [Example 4] | 100 | 100 | 100 | 2.41 | – | – |
| COC(=O)N(C)NC(=O)c1cc(Cl)cc(C)c1NC(=O)c1cc(Cn2nnc(C(F)(F)F)n2)nn1-c1ncccc1Cl [Example 5] | 100 | 100 | 100 | 2.96 | – | – |
| COC(=O)N(C)NC(=O)c1cc(C#N)cc(C)c1NC(=O)c1cc(Cn2nnc(C(F)(F)F)n2)nn1-c1ncccc1Cl [Example 6] | 100 | 100 | 100 | 2.63 | – | – |
| COC(=O)N(C)N(C)C(=O)c1cc(Cl)cc(C)c1NC(=O)c1cc(Cn2nnc(C(F)(F)F)n2)nn1-c1ncccc1Cl [Example 7] | 100 | 100 | 100 | 3.39 | – | – |
| COC(=O)N(C)N(C)C(=O)c1cc(C#N)cc(C)c1NC(=O)c1cc(Cn2nnc(C(F)(F)F)n2)nn1-c1ncccc1Cl [Example 8] | 100 | 100 | 100 | 2.97 | – | – |
| COC(=O)N(C)NC(=O)c1cc(Cl)cc(C)c1NC(=O)c1cc(Cn2nc(C(F)(F)F)cc2C(F)(F)F)nn1-c1ncc(C(F)(F)F)cc1Cl [Example 10] | – | – | – | – | 4.35 | – |
| COC(=O)N(C)NC(=O)c1cc(Cl)cc(Cl)c1NC(=O)c1cc(Cn2nc(C(F)(F)F)c(Cl)c2C)nn1-c1ncccc1Cl [Example 11] | 90 | 100 | 100 | 3.55 | – | – |
| COC(=O)N(C)NC(=O)c1cc(Cl)cc(Cl)c1NC(=O)c1cc(Cn2nc(C(F)(F)F)c(Br)c2C)nn1-c1ncccc1Cl [Example 12] | 100 | 100 | 100 | 3.57 | – | – |
| COC(=O)N(C)NC(=O)c1cc(Cl)cc(C)c1NC(=O)c1cc(Cn2nc(C(F)(F)C(F)(F)F)cc2C(F)(F)C(F)(F)F)nn1-c1ncccc1Cl [Example 13] | – | 100 | – | – | 4.32 | pest or weed control at 100 g/ha [4, 7]: 100% |
| COC(=O)N(C)NC(=O)c1cc(Cl)cc(Cl)c1NC(=O)c1cc(Cn2nc(C(F)(F)C(F)(F)F)cc2C(F)(F)C(F)(F)F)nn1-c1ncccc1Cl [Example 14] | – | 100 | – | – | 4.3 | pest or weed control at 100 g/ha [4, 7]: 100% |
| COC(=O)N(C)NC(=O)c1cc(Cl)cc(Cl)c1NC(=O)c1cc(Cn2nc(C(F)(F)F)cc2-c2ccccc2)nn1-c1ncccc1Cl [Example 15] | – | – | – | – | 3.82 | pest or weed control at 100 g/ha [4, 7]: 100% |
| COC(=O)N(C)NC(=O)c1cc(C#N)cc(C)c1NC(=O)c1cc(Cn2nnc(C(F)(C(F)(F)F)C(F)(F)F)n2)nn1-c1ncccc1Cl [Example 16] | – | 100 | – | – | 3.26 | pest or weed control at 100 g/ha [1, 8]: 100%; pest or weed control at 100 g/ha [4, 7]: 100% |
| COC(=O)N(C)NC(=O)c1cc(I)cc(C)c1NC(=O)c1cc(Cn2ccc(C(F)(F)F)n2)nn1-c1ncccc1Cl [Example 17] | 100 | 100 | 100 | 3.01 | – | – |
| COC(=O)N(C)NC(=O)c1cc(Cl)cc(Cl)c1NC(=O)c1cc(Cn2nc(C(F)(F)F)cc2C(F)(F)F)nn1-c1ncc(C(F)(F)F)cc1Cl [Example 18] | – | – | – | – | 4.32 | – |
| COC(=O)N(C)NC(=O)c1cc(Cl)cc(Cl)c1NC(=O)c1cc(Cn2nc(C(F)(F)F)c([N+](=O)[O-])c2C)nn1-c1ncccc1Cl [Example 19] | – | 100 | – | – | 3.11 | pest or weed control at 100 g/ha [4, 7]: 100% |
| COC(=O)N(C)NC(=O)c1cc(Cl)cc(C)c1NC(=O)c1cc(Cn2cc([N+](=O)[O-])c(C(F)(F)F)n2)nn1-c1ncccc1Cl [Example 20] | 90 | 100 | 100 | 3.07 | – | – |
| COC(=O)N(C)NC(=O)c1cc(Cl)cc(Cl)c1NC(=O)c1cc(Cn2nc(C(F)(F)F)nc2C)nn1-c1ncccc1Cl [Example 21] | 90 | – | 100 | 2.51 | – | – |

| Compound | pest or weed control at 100 g/ha ([1]; in Brassica rapa) [%] | pest or weed control at 100 g/ha [2] [%] | pest or weed control at 100 g/ha ([4]; in Zea mays) [%] | chromatographic logP [3] | chromatographic logP [3, 6] | further results |
| --- | --- | --- | --- | --- | --- | --- |
| COC(=O)N(C)NC(=O)c1cc(C#N)cc(C)c1NC(=O)c1cc(COc2ccc(C(F)(F)F)nn2)nn1-c1ncccc1Cl [Example 22] | 100 | 100 | – | 2.53 | – | – |
| COC(=O)N(C)NC(=O)c1cc(Cl)cc(C)c1NC(=O)c1cc(Cn2cc(-c3ccc(Cl)cc3)nn2)nn1-c1ncccc1Cl [Example 23] | 100 | 100 | 100 | 3.14 | – | – |
| COC(=O)N(C)NC(=O)c1cc(Cl)cc(C)c1NC(=O)c1cc(Cn2cc(C(C)(C)C)nn2)nn1-c1ncccc1Cl [Example 24] | – | – | – | 2.53 | – | – |
| COC(=O)N(C)N(C)C(=O)c1cc(Cl)cc(C)c1NC(=O)c1cc(Cn2cc(C3CC3)nn2)nn1-c1ncccc1Cl [Example 39] | 80 | – | – | 2.71 | – | – |
| COC(=O)N(C)N(C)C(=O)c1cc(Cl)cc(C)c1NC(=O)c1cc(Cn2cc(C(C)(C)C)nn2)nn1-c1ncccc1Cl [Example 40] | – | – | – | 2.98 | – | – |
| COC(=O)N(C)NC(=O)c1cc(Cl)cc(Cl)c1NC(=O)c1cc(Cn2nnc(C(F)(F)F)n2)nn1-c1ncccc1Cl [Example 43] | – | – | – | 2.92 | – | – |
| COC(=O)N(C)NC(=O)c1cc(F)cc(C)c1NC(=O)c1cc(Cn2nnc(C(F)(F)C(F)(F)F)n2)nn1-c1ncccc1Cl [Example 44] | – | – | – | 3.05 | – | – |
| COC(=O)N(C)NC(=O)c1cc(C#N)cc(C)c1NC(=O)c1cc(Cn2nnnc2C(F)(F)F)nn1-c1ccccc1Cl [Example 55] | – | – | – | – | 2.69 | – |
| COC(=O)N(C)NC(=O)c1cc(C#N)cc(C)c1NC(=O)c1cc(Cn2nnc(C(F)(F)F)n2)nn1-c1ccccc1Cl [Example 56] | – | – | – | – | 2.97 | – |
| COC(=O)NNC(=O)c1cc(C#N)cc(C)c1NC(=O)c1cc(Cn2nnc(C(F)(F)F)n2)nn1-c1ccccc1Cl [Example 58] | – | – | – | – | 2.79 | – |
| COC(=O)NNC(=O)c1cc(Cl)cc(C)c1NC(=O)c1cc(Cn2cc(C(C)(C)C)nn2)nn1-c1ncccc1Cl [Example 62] | – | – | 100 | 2.38 | – | – |
| COC(=O)N(C)NC(=O)c1cc(Cl)cc(C)c1NC(=O)c1cc(Cn2cnc(SC)n2)nn1-c1ncccc1Cl [Example 64] | – | – | – | 2.09 | – | – |
| COC(=O)N(C)NC(=O)c1cc(Cl)cc(C)c1NC(=O)c1cc(Cn2nc(C)c(Br)c2C)nn1-c1ncccc1Cl [Example 65] | 80 | – | 100 | 2.97 | – | – |
| COC(=O)N(C)NC(=O)c1cc(Cl)cc(C)c1NC(=O)c1cc(CNS(=O)(=O)c2ccccc2C(F)(F)F)nn1-c1ncccc1Cl [Example 70] | – | – | – | – | 2.81 | – |
| COC(=O)N(C)NC(=O)c1cc(Cl)cc(C)c1NC(=O)c1cc(CNS(=O)(=O)c2ccccc2)nn1-c1ncccc1Cl [Example 71] | – | – | – | 2.42 | – | – |
| COC(=O)N(C)NC(=O)c1cc(C#N)cc(C)c1NC(=O)c1cc(Cn2cnc(C(F)(F)F)c2C(F)(F)F)nn1-c1ncccc1Cl [Example 76] | – | – | – | – | 2.77 | – |
| COC(=O)N(C)NC(=O)c1cc(I)cc(C)c1NC(=O)c1cc(Cn2cnc(C(F)(F)F)c2)nn1-c1ncccc1Cl [Example 77] | 80 | – | 83 | 2.56 | – | – |
| COC(=O)N(C)NC(=O)c1cc(C#N)cc(C)c1NC(=O)c1cc(Cn2cnc(C(F)(F)F)c2)nn1-c1ncccc1Cl [Example 78] | 90 | – | – | 2.1 | – | – |
| COC(=O)NNC(=O)c1cc(I)cc(C)c1NC(=O)c1cc(Cn2cnc(C(F)(F)F)c2)nn1-c1ncccc1Cl [Example 80] | – | – | – | 2.38 | – | – |
| COC(=O)NNC(=O)c1cc(C#N)cc(C)c1NC(=O)c1cc(Cn2nnc(C(F)(F)F)n2)nn1-c1ccccc1Cl [Example 84] | – | 100 | – | – | – | pest or weed control at 100 g/ha [1, 8]: 100%; pest or weed control at 100 g/ha [4, 7]: 100% |

From patent US8410106B2, “Hydrazine-substituted anthranilic acid derivatives” (Bayer Cropscience AG, priority 2010, dated 2013)
